Like-named read-outs stand apart in the source and are kept apart here.
Legend:
[1] = biological target: T1, native aSyn aggregates in A30P transgenic mouse brain sections (Homo sapiens, UniProt P37840, A30P); assay: aSyn in vitro displacement assay ([3H]Example-3 autoradiography); format: binding, mutant human aSyn gene); conditions: for inhibition at 1 µM: read-out: PCT_INHIB A30P @ 1 μM (% displacement of [3H]Example-3); for inhibition at 3 µM: 3 μM compound, read-out: PCT_INHIB A30P @ 3 μM
T1 construct: from tissue; host or cells: brain sections (midbrain and pons as ROI) of A30P transgenic mice, line B6.D2-Tg(Thy1-SNCA*30P)31Pjk

[2] = biological target: T2, native Aβ aggregates in human AD brain tissue sections (Homo sapiens, UniProt P05067); assay: Aβ in vitro displacement assay (selectivity counterscreen, [3H]Example 3 autoradiography); format: binding; conditions: for inhibition at 1 µM: read-out: sel. counterscreen PCT_INHIB AD @ 1 μM (% displacement of [3H]Example 3); for inhibition at 3 µM: 3 μM compound, read-out: sel. counterscreen PCT_INHIB AD @ 3 μM
T2 construct: native Aβ aggregates in human AD brain tissue samples; from tissue; host or cells: human AD brain tissue sections
T2 sequence (P05067 672-713 limits assumed): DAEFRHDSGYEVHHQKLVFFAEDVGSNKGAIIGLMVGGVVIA

[3] = 1 μM compound, 3 nM [3H]Example-3, A30P transgenic mouse brain sections
[4] = 1 μM compound, 3 nM [3H]Example 3, human AD brain sections
[5] = 3 nM [3H]Example-3, A30P transgenic mouse brain sections
[6] = 3 nM [3H]Example 3, human AD brain sections

| SMILES | inhibition at 1 µM [1, 3] | inhibition at 1 µM [2, 4] | other results |
| --- | --- | --- | --- |
| COC(=O)c1ccc(N2CCN(c3ccc(NC(=O)c4ccc(OC)cc4)cc3)CC2)nc1 [Example 172, Methyl 6-(4-(4-(4-methoxybenzamido)phenyl)piperazin-1-yl)nicotinate] | 93% | 84% |  |
| O=C(Nc1ccc(N2CCN(c3ccccn3)CC2)cc1)c1ccc(OCCOCCO)cc1 [Example 137, 4-(2-(2-Hydroxyethoxy)ethoxy)-N-(4-(4-(pyridin-2-yl)piperazin-1-yl)phenyl)benzamide] | 80% | 92% |  |
| O=C(Nc1ccc(N2CCN(c3cccnc3)CC2)cc1)c1ccc(O)cc1 [Example 138, 4-Hydroxy-N-[4-(4-pyridin-3-ylpiperazin-1-yl)phenyl]benzamide] | 82% | 89% |  |
| COc1ccc(C(=O)Nc2ccc(N3CCN(c4ccccn4)CC3)cn2)c(C)c1 [Example 80, 4-Methoxy-2-methyl-N-[5-(4-pyridin-2-ylpiperazin-1-yl)pyridin-2-yl]benzamide] | 90% | 94% |  |
| COc1ccc(C(=O)Nc2ccc(N3CCN(c4cccc(F)c4)CC3)cc2)cc1 [Example 104, N-[4-[4-(3-Fluorophenyl)piperazin-1-yl]phenyl]-4-methoxy-benzamide] | 98% | 100% |  |
| COc1ccc(C(=O)Nc2ccc(N3CCN(c4ccc(C)cc4)CC3)cc2)cc1 [Example 109, 4-Methoxy-N-[4-[4-(p-tolyl)piperazin-1-yl]phenyl]benzamide] | 96% | 97% |  |
| COc1ccc(C(=O)Nc2ccc(N3CCN(c4ccc(C#N)c(F)c4)CC3)cc2)cc1 [Example 150, N-(4-(4-(4-Cyano-3-fluorophenyl)piperazin-1-yl)phenyl)-4-methoxybenzamide] | 98% | 94% |  |
| COc1cccc(C(=O)Nc2ccc(N3CCN(c4ccc(C#N)cn4)CC3)cc2)n1 [Example 91, N-(4-(4-(5-Cyanopyridin-2-yl)piperazin-1-yl)phenyl)-6-methoxypicolinamide] | 85% | 54% |  |
| COc1ccc(C(=O)Nc2ccc(N3CCN(c4ccc(F)cn4)CC3)cc2)cc1 [Example 141, N-(4-(4-(5-Fluoropyridin-2-yl)piperazin-1-yl)phenyl)-4-methoxybenzamide] | 96% | 94% |  |
| COc1ccc(C(=O)Nc2ccc(N3CCN(c4ccc(C#N)cc4)CC3)cc2)c(F)c1 [Example 114, N-[4-[4-(4-Cyanophenyl)piperazin-1-yl]phenyl]-2-fluoro-4-methoxy-benzamide] | 91% | 92% |  |
| O=C(Nc1ccc(N2CCN(c3ccccn3)CC2)cn1)c1ccc(N2CCOCC2)cc1 [Example 51, 4-Morpholino-N-(5-(4-(pyridin-2-yl)piperazin-1-yl)pyridin-2-yl)benzamide] | 94% | 94% |  |
| N#Cc1ccc(N2CCN(c3ccc(NC(=O)c4ccncn4)cc3)CC2)cc1 [Example 165, N-(4-(4-(4-Cyanophenyl)piperazin-1-yl)phenyl)pyrimidine-4-carboxamide] | 86% | 90% |  |
| C#CCOc1ccc(C(=O)Nc2ccc(N3CCN(c4ccc(C#N)cn4)CC3)cc2)cc1 [Example 174, N-[4-[4-(5-Cyano-2-pyridyl)piperazin-1-yl]phenyl]-4-prop-2-ynoxy-benzamide] |  |  | inhibition at 3 µM [1, 5]: 87%; inhibition at 3 µM [2, 6]: 100% |
| CN(C)c1ccc(C(=O)Nc2ccc(N3CCN(c4ccccn4)CC3)cn2)cc1 [Example 46, 4-(Dimethylamino)-N-(5-(4-(pyridin-2-yl)piperazin-1-yl)pyridin-2-yl)benzamide] | 94% | 96% |  |
| COc1ccc(C(=O)Nc2ccc(N3CCN(c4ccccn4)CC3)cc2)cc1 [Example 3, 4-Methoxy-N-[4-(4-pyridin-2-ylpiperazin-1-yl)phenyl]benzamide] |  |  | inhibition at 3 µM [1, 5]: 100%; inhibition at 3 µM [2, 6]: 100% |
| COc1ccc(C(=O)Nc2ccc(N3CCN(c4ccc(C#N)cc4)CC3)c(C)c2)cc1 [Example 112, N-[4-[4-(4-Cyanophenyl)piperazin-1-yl]-3-methyl-phenyl]-4-methoxy-benzamide] | 87% | 74% |  |
| CN1CCN(c2ccc(C(=O)Nc3cnc(N4CCN(c5ccccn5)CC4)cn3)cc2)CC1 [Example 87, 4-(4-Methylpiperazin-1-yl)-N-(5-(4-(pyridin-2-yl)piperazin-1-yl)pyrazin-2-yl)benzamide] | 88% | 98% |  |

| SMILES | inhibition at 1 µM [1, 3] | inhibition at 1 µM [2, 4] | other results |
| --- | --- | --- | --- |
| N#Cc1ccc(N2CCN(c3ccc(NC(=O)c4ccc(OCC(O)CF)cc4)cc3)CC2)cc1 (racemic) [Example 131, rac-N-(4-(4-(4-Cyanophenyl)piperazin-1-yl)phenyl)-4-(3-fluoro-2-hydroxypropoxy)benzamide] | 88% | 90% |  |
| N#Cc1ccc(N2CCN(c3ccc(NC(=O)c4ccc(OCCOCCOCCF)cc4)cc3)CC2)cc1 [Example 123, N-[4-[4-(4-Cyanophenyl)piperazin-1-yl]phenyl]-4-[2-[2-(2-fluoroethoxy)ethoxy]ethoxy]benzamide] | 80% | 95% |  |
| Cc1ccc(C(=O)Nc2ccc(N3CCN(c4ccccn4)CC3)cc2)cc1 [Example 5, 4-Methyl-N-(4-(4-(pyridin-2-yl)piperazin-1-yl)phenyl)benzamide] | 99% | 102% |  |
| CC(C)(C)[Si](C)(C)OC(CF)COc1ccc(C(=O)Nc2ccc(N3CCN(c4cc(C#N)ccn4)CC3)cc2)cc1 (racemic) [Example 128, rac-4-(2-((tert-Butyldimethylsilyl)oxy)-3-fluoropropoxy)-N-(4-(4-(4-cyanopyridin-2-yl)piperazin-1-yl)phenyl)benzamide] |  |  | inhibition at 1 µM [1]: 92%; inhibition at 1 µM [2]: 98% |
| COc1ccc(C(=O)Nc2ccc(N3CCN(c4ccc(C#N)cn4)CC3)cc2)cc1OC [Example 159, N-(4-(4-(5-Cyanopyridin-2-yl)piperazin-1-yl)phenyl)-3,4-dimethoxybenzamide] | 88% | 89% |  |
| COc1ccc(C(=O)Nc2ccc(N3CCN(c4ccncc4C)CC3)cc2)cc1 [Example 83, Acetic acid; 4-Methoxy-N-[4-[4-(3-methyl-4-pyridyl)piperazin-1-yl]phenyl]benzamide] | 86% | 95% |  |
| CC(C)(C)[Si](C)(C)OC(CF)COc1ccc(C(=O)Nc2ccc(N3CCN(c4nccs4)CC3)cc2)cc1 (racemic) [Example 126, rac-4-(2-((tert-Butyldimethylsilyl)oxy)-3-fluoropropoxy)-N-(4-(4-(thiazol-2-yl)piperazin-1-yl)phenyl)benzamide] |  |  | inhibition at 1 µM [1]: 82%; inhibition at 1 µM [2]: 89% |
| COc1ccc(C(=O)Nc2ccc(N3CCN(c4cc(OC)ccn4)CC3)cc2)cc1 [Example 82, 4-Methoxy-N-[4-[4-(4-methoxy-2-pyridyl)piperazin-1-yl]phenyl]benzamide] | 91% | 106% |  |
| COc1ccc(C(=O)Nc2ccc(N3CCN(c4ccc(C#N)cc4)CC3)cn2)cc1 [Example 96, N-(5-(4-(4-Cyanophenyl)piperazin-1-yl)pyridin-2-yl)-4-methoxybenzamide] | 84% | 66% |  |
| CN(C)c1ccc(C(=O)Nc2cnc(N3CCN(c4ccccn4)CC3)cn2)cc1 [Example 86, 4-(Dimethylamino)-N-(5-(4-(pyridin-2-yl)piperazin-1-yl)pyrazin-2-yl)benzamide] | 95% | 100% |  |
| COc1ccc(C(=O)Nc2ccc(N3CCN(c4ccccn4)CC3)cn2)cc1 [Example 43, 4-Methoxy-N-(5-(4-(pyridin-2-yl)piperazin-1-yl)pyridin-2-yl)benzamide] | 84% | 99% |  |
| Cc1ccc(C(=O)Nc2ccc(N3CCN(c4ccccn4)CC3)cn2)cc1 [Example 45, 4-Methyl-N-(5-(4-(pyridin-2-yl)piperazin-1-yl)pyridin-2-yl)benzamide] | 97% | 98% |  |
| CN(C)c1ccc(C(=O)Nc2ccc(N3CCN(c4ccccn4)CC3)nn2)cc1 [Example 36, 4-(Dimethylamino)-N-[6-[4-(2-pyridyl)piperazin-1-yl]pyridazin-3-yl]benzamide] | 86% | 91% |  |
| Cc1ccc(C(=O)Nc2ccc(N3CCN(c4ccccn4)CC3)nc2)nc1 [Example 33, 5-Methyl-N-[6-[4-(2-pyridyl)piperazin-1-yl]-3-pyridyl]pyridine-2-carboxamide] | 85% | 90% |  |
| COc1ccc(C(=O)Nc2ccc(N3CCN(c4cc(C)ccn4)CC3)cc2)cc1 [Example 102, 4-Methoxy-N-[4-[4-(4-methyl-2-pyridyl)piperazin-1-yl]phenyl]benzamide] | 89% | 88% |  |
| O=C(Nc1ccc(N2CCN(c3ccccn3)CC2)cc1)c1ccc2nccn2c1 [Example 17, N-(4-(4-(Pyridin-2-yl)piperazin-1-yl)phenyl)imidazo[1,2-a]pyridine-6-carboxamide] | 87% | 98% |  |
| O=C(Nc1ccc(N2CCN(c3cccnc3)CC2)cc1)c1ccc(N2CCOCC2)cc1 [Example 39, 4-Morpholino-N-(4-(4-(pyridin-3-yl)piperazin-1-yl)phenyl)benzamide] | 87% | 69% |  |
